Patent US7598258B2, “Quinoline derivatives and quinazoline derivatives inhibiting autophosphorylation of macrophage colony stimulating factor receptor” (Kirin Beer Kabushiki Kaisha, priority 2002, dated 2009)

What was measured:
[1] = biological target: T1, Human KDR (Homo sapiens, UniProt P35968); assay: Inhibition of KDR phosphorylation in human KDR-transfected NIH3T3 cells (ELISA); type: cell-based; settings: for Selection ratio (KDR phosphorylation IC50 / c-fms phosphorylation IC50): class 0-3; for IC50: human KDR-transfected NIH3T3 cells, VEGF 100 ng/ml, ELISA, read-out: KDR phosphorylation 50% inhibitory concentration (IC50)
T1 construct: expressed in transfected cells; host or cells: NIH3T3 cells (mouse fibroblasts)
In short: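 NIH3T3 cells transfected with human KDR, in 0.1% FCS medium, treated with compound 1 hr at 37° C, then stimulated with VEGF 100 ng/ml for 2 min. Lysate KDR phosphorylation measured by anti-phosphotyrosine capture/anti-KDR ELISA (A450); IC50 from inhibition normalized between VEGF-stimulated and unstimulated wells.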

[2] = test system: BAC-1.2F5 cell line; assay: Inhibition of M-CSF-dependent cell growth of macrophage-like cell line BAC-1.2F5 (MTS); type: cell-based, mouse; settings: 72 hr, M-CSF 50 ng/ml, FIG. 1
Description: Macrophage-like cell line BAC-1.2F5 which expresses c-fms as a M-CSF receptor on cell membranes (CLAUDIA M. et al., J. Cell. Physiol., 130, 420-427 (1987), “Isolation and Characterization of a Cloned Growth Factor Dependent Macrophage Cell Line, BAC1.2F5”) was cultured at 37° C. in a DMEM medium containing L-cell supernatant and 10% fetal calf serum (purchased from GIBCO BRL) in a 5% CO2 incubator until about 50 to 70% confluent. The harvested cells were inoculated into wells, each containing a 10% fetal calf serum-containing DMEM medium with human recombinant M-CSF being added thereto to a final concentration of 50 ng/ml, in a 96-well flat-bottom plate at a density of 5.0×10^3 per well, and cultured at 37° C. for 24 hr. A test compound dissolved in dimethyl sulfoxide was then added to each well to a target concentration, and cells were incubated at 37° C. in a 5% CO2 incubator for 72 hr. Thereafter, 20 μl of an MTS reagent (purchased from Promega) was added to each well, followed by incubation at 37° C. in a 5% CO2 incubator for 2 hr. Thereafter, absorbance at 490 nm was measured with a microplate reader. The cell growth rate with the addition of the test compound was determined by presuming the absorbance without the addition of the test compound and with the addition of M-CSF to be 100% cell growth and the absorbance without the addition of the test compound and M-CSF to be 0% cell growth. The concentration of the test compound was varied on several levels, and the cell growth rate in each case was calculated.

T1 sequence (P35968 20-1356): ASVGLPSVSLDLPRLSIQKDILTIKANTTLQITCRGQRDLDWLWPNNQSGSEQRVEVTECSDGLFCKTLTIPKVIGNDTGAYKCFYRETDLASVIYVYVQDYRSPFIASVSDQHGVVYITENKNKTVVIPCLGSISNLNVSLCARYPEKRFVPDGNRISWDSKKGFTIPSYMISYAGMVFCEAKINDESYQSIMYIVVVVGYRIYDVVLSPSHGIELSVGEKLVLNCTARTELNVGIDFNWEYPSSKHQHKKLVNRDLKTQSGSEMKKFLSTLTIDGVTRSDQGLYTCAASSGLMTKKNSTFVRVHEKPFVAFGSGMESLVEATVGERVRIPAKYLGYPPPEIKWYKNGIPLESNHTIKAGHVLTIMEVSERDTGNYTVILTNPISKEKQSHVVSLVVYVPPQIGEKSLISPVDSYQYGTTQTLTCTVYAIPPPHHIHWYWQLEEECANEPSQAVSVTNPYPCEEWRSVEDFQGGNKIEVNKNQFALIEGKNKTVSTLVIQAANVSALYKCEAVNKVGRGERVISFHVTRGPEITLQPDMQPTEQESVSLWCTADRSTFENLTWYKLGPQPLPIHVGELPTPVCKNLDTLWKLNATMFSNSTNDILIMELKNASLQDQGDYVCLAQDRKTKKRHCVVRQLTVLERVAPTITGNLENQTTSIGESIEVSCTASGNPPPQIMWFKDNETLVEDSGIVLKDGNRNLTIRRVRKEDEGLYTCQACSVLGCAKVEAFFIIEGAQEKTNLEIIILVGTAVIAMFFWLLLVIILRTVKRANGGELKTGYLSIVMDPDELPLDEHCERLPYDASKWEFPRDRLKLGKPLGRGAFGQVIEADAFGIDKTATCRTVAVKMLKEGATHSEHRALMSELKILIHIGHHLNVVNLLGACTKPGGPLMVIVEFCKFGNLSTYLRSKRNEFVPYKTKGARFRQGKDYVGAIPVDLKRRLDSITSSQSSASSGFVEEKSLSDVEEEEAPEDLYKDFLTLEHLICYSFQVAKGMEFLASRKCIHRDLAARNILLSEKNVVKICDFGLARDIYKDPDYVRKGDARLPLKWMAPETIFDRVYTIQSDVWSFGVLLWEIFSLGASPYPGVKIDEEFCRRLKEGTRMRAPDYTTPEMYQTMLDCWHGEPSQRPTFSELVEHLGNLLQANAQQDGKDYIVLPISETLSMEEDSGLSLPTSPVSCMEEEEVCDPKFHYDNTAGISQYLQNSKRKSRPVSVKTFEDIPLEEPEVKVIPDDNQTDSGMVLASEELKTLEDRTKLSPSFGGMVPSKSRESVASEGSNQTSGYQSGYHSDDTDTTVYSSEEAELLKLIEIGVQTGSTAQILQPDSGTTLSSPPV

SMILES | Selection ratio (KDR phosphorylation IC50 / c-fms phosphorylation IC50) [1] | IC50 [1] [nM] | selective inhibition of c-fms rather than KDR (in words) ([1]; in vitro) | inhibition of M-CSF-dependent cell growth of BAC-1.2F5 [2]
COc1cc(Oc2ccnc3cc(OC)c(OC)cc23)ccc1NC(=O)N[C@@H](C)c1ccc(F)cc1 [Example 17, N-{4-[(6,7-Dimethoxy-4-quinolyl)oxy]-2-methoxyphenyl}-N′-[(1S)-1-(4-fluorophenyl)ethyl]urea] | 3 (when the value was 50 or more) | 315 | selectively inhibit c-fms rather than KDR | concentration-dependent inhibition
COc1cc(Oc2ccnc3cc(OC)c(OC)cc23)ccc1NC(=O)N[C@H](C)c1ccc(F)cc1 [Example 18, N-{4-[(6,7-Dimethoxy-4-quinolyl)oxy]-2-methoxyphenyl}-N′-[(1R)-1-(4-fluorophenyl)ethyl]urea] | 0 (KDR phosphorylation 50% inhibitory concentration [μM]/c-fms phosphorylation 50% inhibitory concentration [μM] was less than 5) | 1.8 |  | concentration-dependent inhibition
COc1cc(Oc2ccnc3cc(OC)c(OC)cc23)ccc1NC(=O)NC(C)c1nccs1 (stereo not drawn) [Example 74, N-{4-[(6,7-Dimethoxy-4-quinolyl)oxy]-2-methoxyphenyl}-N′-[1-(1,3-thiazol-2-yl)ethyl]urea] |  |  |  | concentration-dependent inhibition
COc1cc2nccc(Oc3ccc(NC(=O)N[C@@H](C)c4nccs4)c(C(F)(F)F)c3)c2cc1OC [Example 84, N-[4-[(6,7-Dimethoxy-4-quinolyl)oxy]-2-(trifluoromethyl)phenyl]-N′-[(1S)-1-(1,3-thiazol-2-yl)ethyl]urea] | 3 (when the value was 50 or more) | 661 |  | 
COc1cc2nccc(Oc3ccc(NC(=O)N[C@H](C)c4nccs4)c(C(F)(F)F)c3)c2cc1OC [Example 85, N-[4-[(6,7-Dimethoxy-4-quinolyl)oxy]-2-(trifluoromethyl)phenyl]-N′-[(1R)-1-(1,3-thiazol-2-yl)ethyl]urea] | 0 (KDR phosphorylation 50% inhibitory concentration [μM]/c-fms phosphorylation 50% inhibitory concentration [μM] was less than 5) | 21.6 |  | 
COc1cc2nccc(Oc3cc(C)c(NC(=O)N[C@@H](C)c4nccs4)cc3C)c2cc1OC [Example 86, N-{4-[(6,7-Dimethoxy-4-quinolyl)oxy]-2,5-dimethylphenyl}-N′-[(1S)-1-(1,3-thiazol-2-yl)ethyl]urea] | 2 (when the value was 10 or more) | 208 |  | 
COc1cc2nccc(Oc3cc(C)c(NC(=O)N[C@H](C)c4nccs4)cc3C)c2cc1OC [Example 87, N-{4-[(6,7-Dimethoxy-4-quinolyl)oxy]-2,5-dimethylphenyl}-N′-[(1R)-1-(1,3-thiazol-2-yl)ethyl]urea] | 2 (when the value was 10 or more) | 273 |  | 
COc1cc2nccc(Oc3ccc(NC(=O)NC(C)c4nc(C)cs4)c(F)c3)c2cc1OC (stereo not drawn) [Example 88, N-{4-[(6,7-Dimethoxy-4-quinolyl)oxy]-2-fluorophenyl}-N′-[1-(4-methyl-1,3-thiazol-2-yl)ethyl]urea] | 0 (KDR phosphorylation 50% inhibitory concentration [μM]/c-fms phosphorylation 50% inhibitory concentration [μM] was less than 5) | 8.7 |  | 
COc1cc2nccc(Oc3ccc(NC(=O)NC(C)c4nc(C)cs4)cc3F)c2cc1OC (stereo not drawn) [Example 89, N-{4-[(6,7-Dimethoxy-4-quinolyl)oxy]-3-fluorophenyl}-N′-[1-(4-methyl-1,3-thiazol-2-yl)ethyl]urea] | 1 (when the value was 5 or more) | 17.4 |  | 
COc1cc(Oc2ccnc3cc(OC)c(OC)cc23)ccc1NC(=O)NC(C)c1nc(C)cs1 (stereo not drawn) [Example 90, N-{4-[(6,7-Dimethoxy-4-quinolyl)oxy]-2-methoxyphenyl}-N′-[1-(4-methyl-1,3-thiazol-2-yl)ethyl]urea] | 2 (when the value was 10 or more) | 111 |  | 
COc1cc2nccc(Oc3ccc(NC(=O)NC(C)c4nc(C)cs4)cc3)c2cc1OC (stereo not drawn) [Example 91, N-{4-[(6,7-Dimethoxy-4-quinolyl)oxy]phenyl}-N′-[1-(4-methyl-1,3-thiazol-2-yl)ethyl]urea] | 1 (when the value was 5 or more) | 28.8 |  | 
COc1cc2nccc(Oc3ccc(NC(=O)NC(C)c4nc(C)cs4)c(C(F)(F)F)c3)c2cc1OC (stereo not drawn) [Example 92, N-[4-[(6,7-Dimethoxy-4-quinolyl)oxy]-2-(trifluoromethyl)phenyl]-N′-[1-(4-methyl-1,3-thiazol-2-yl)ethyl]urea] | 0 (KDR phosphorylation 50% inhibitory concentration [μM]/c-fms phosphorylation 50% inhibitory concentration [μM] was less than 5) | 4.3 |  | 
COc1cc2nccc(Oc3cc(C)c(NC(=O)NC(C)c4nc(C)cs4)cc3C)c2cc1OC (stereo not drawn) [Example 93, N-{4-[(6,7-Dimethoxy-4-quinolyl)oxy]-2,5-dimethylphenyl}-N′-[1-(4-methyl-1,3-thiazol-2-yl)ethyl]urea] | 1 (when the value was 5 or more) | 268 |  | 
COc1cc2nccc(Oc3ccc(NC(=O)NC(C)c4ncc(C)s4)c(C)c3)c2cc1OC (stereo not drawn) [Example 103, N-{4-[(6,7-Dimethoxy-4-quinolyl)oxy]-2-methylphenyl}-N′-[1-(5-methyl-1,3-thiazol-2-yl)ethyl]urea] | 0 (KDR phosphorylation 50% inhibitory concentration [μM]/c-fms phosphorylation 50% inhibitory concentration [μM] was less than 5) | 90.9 |  | 
COc1cc2nccc(Oc3ccc(NC(=O)NC(C)c4ncc(C)s4)c(C(F)(F)F)c3)c2cc1OC (stereo not drawn) [Example 104, N-[4-[(6,7-Dimethoxy-4-quinolyl)oxy]-2-(trifluoromethyl)phenyl]-N′-[1-(5-methyl-1,3-thiazol-2-yl)ethyl]urea] | 0 (KDR phosphorylation 50% inhibitory concentration [μM]/c-fms phosphorylation 50% inhibitory concentration [μM] was less than 5) | 36.1 |  | 

Second part, led by results:

Selection ratio (KDR phosphorylation IC50 / c-fms phosphorylation IC50) [1] | IC50 [1] [nM] | SMILES | selective inhibition of c-fms rather than KDR (in words) ([1]; in vitro) | inhibition of M-CSF-dependent cell growth of BAC-1.2F5 [2]
2 (when the value was 10 or more) | 292 | COc1cc(Oc2ccnc3cc(OC)c(OC)cc23)ccc1NC(=O)NC(C)c1nc(C)c(C)s1 (stereo not drawn) [Example 99, N-{4-[(6,7-Dimethoxy-4-quinolyl)oxy]-2-methoxyphenyl}-N′-[1-(4,5-dimethyl-1,3-thiazol-2-yl)ethyl]urea] |  | 
2 (when the value was 10 or more) | 311 | COc1cc2nccc(Oc3ccc(NC(=O)NC(C)c4ncc(C)s4)cc3)c2cc1OC (stereo not drawn) [Example 100, N-{4-[(6,7-Dimethoxy-4-quinolyl)oxy]phenyl}-N′-[1-(5-methyl-1,3-thiazol-2-yl)ethyl]urea] |  | 
2 (when the value was 10 or more) | 239 | COc1cc2nccc(Oc3ccc(NC(=O)NC(C)c4ncc(C)s4)c(F)c3)c2cc1OC (stereo not drawn) [Example 101, N-{4-[(6,7-Dimethoxy-4-quinolyl)oxy]-2-fluorophenyl}-N′-[1-(5-methyl-1,3-thiazol-2-yl)ethyl]urea] |  | 
2 (when the value was 10 or more) | 219 | COc1cc2nccc(Oc3ccc(NC(=O)NC(C)c4ncc(C)s4)cc3F)c2cc1OC (stereo not drawn) [Example 102, N-{4-[(6,7-Dimethoxy-4-quinolyl)oxy]-3-fluorophenyl}-N′-[1-(5-methyl-1,3-thiazol-2-yl)ethyl]urea] |  | 
2 (when the value was 10 or more) | 310 | COc1cc(Oc2ccnc3cc(OC)c(OC)cc23)ccc1NC(=O)NC(C)c1ncc(C)s1 (stereo not drawn) [Example 105, N-{4-[(6,7-Dimethoxy-4-quinolyl)oxy]-2-methoxyphenyl}-N′-[1-(5-methyl-1,3-thiazol-2-yl)ethyl]urea] |  | 
